Test systems include SK-MEL-2 melanoma; RXF 393 renal; UACC-257 melanoma; SR leukemia; DU-145 prostate; SW-620 colon; MOLT-4 leukemia; OVCAR-8 ovarian; RPMI-8226 leukemia; SF-539 CNS.
Holding throughout (experiment): DTP human tumour cell line panel, 48 h

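These data come from cells grown in 96-well plates and exposed to compound for 48 hours at five concentrations. GI50 = concentration required for 50% inhibition of growth. TGI: total growth inhibition.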 Where only a bound is given, the exact number is not on record here.

Our source for the TGI and GI50 values is PubChem BioAssay (NCI).

As a reminder, the TGI is the concentration at which net growth stops. High values mean less potent growth arrest, low ones more potent growth arrest. Turning to `O=C(O)CSc1nc2ccccc2[nH]1`, the TGI with SK-MEL-2 melanoma, in the assay with RXF 393 renal, in the assay on UACC-257 melanoma, with SR leukemia, in the assay with DU-145 prostate and in the assay with SW-620 colon was above 100 µM in each case. For the same compound, the TGI with MOLT-4 leukemia and with OVCAR-8 ovarian was above 100 µM throughout.
Turning to `COc1cc(CN(C)N2C(=O)c3cccc4cc([N+](=O)[O-])cc(c34)C2=O)cc(OC)c1OC`, the TGI in the assay on SK-MEL-2 melanoma is above 100 µM; in the assay on RXF 393 renal it was 90.3 µM; with SR leukemia, above 100 µM; with DU-145 prostate, above 100 µM; with RPMI-8226 leukemia, above 100 µM; in the assay on MOLT-4 leukemia, above 100 µM. In the assay with OVCAR-8 ovarian, this compound came in with a total growth inhibition concentration (TGI) above 100 µM.
Regarding `ClCc1nnc2n1-c1ccc(Cl)cc1SC2`, the TGI in the assay with SK-MEL-2 melanoma is 9.22 µM; with RXF 393 renal, 9.79 µM; in the assay on UACC-257 melanoma, 9.8 µM; in the assay with SF-539 CNS, 13.2 µM; in the assay on SW-620 colon, 24 µM; in the assay on RPMI-8226 leukemia, above 100 µM. Moreover, the figures for the TGI with MOLT-4 leukemia and in the assay with OVCAR-8 ovarian were 3.98 µM and above 39.5 µM, respectively.
With `CCNc1nc2c(=O)n(C)c(=O)n(C)c2s1`, the TGI in the assay on SK-MEL-2 melanoma, in the assay with RXF 393 renal, in the assay with UACC-257 melanoma, in the assay with SF-539 CNS, in the assay with SW-620 colon and in the assay on RPMI-8226 leukemia was above 100 µM in each case. Also, the TGI in the assay with MOLT-4 leukemia and with OVCAR-8 ovarian was above 100 µM throughout.
As to `CCOC(=O)c1csc(NC(=O)CCN2CCOCC2)n1`, the TGI in the assay on SK-MEL-2 melanoma, with RXF 393 renal, in the assay with UACC-257 melanoma, with SR leukemia, in the assay with SF-539 CNS and in the assay with DU-145 prostate was above 100 µM throughout. In addition, the TGI in the assay with SW-620 colon is above 100 µM; in the assay on RPMI-8226 leukemia, above 100 µM; with MOLT-4 leukemia, 81.1 µM; with OVCAR-8 ovarian, 87.2 µM.
In the case of `Cc1cc(C)c(S(=O)(=O)N(CCCCCCN)OCCCON(CCCCCCN)S(=O)(=O)c2c(C)cc(C)cc2C)c(C)c1`, the TGI with SK-MEL-2 melanoma was found to be 3.48 µM; in the assay with RXF 393 renal it was 3.18 µM; in the assay with UACC-257 melanoma, 3.27 µM; with SF-539 CNS, 3.98 µM; in the assay on DU-145 prostate, 2.76 µM; in the assay with OVCAR-8 ovarian, 3.34 µM.
Regarding `O=c1n(Cc2ccccc2)c2ccccc2n1CC1CS1` (configuration not stated), the TGI in the assay with SK-MEL-2 melanoma, in the assay on SR leukemia, in the assay with SF-539 CNS, in the assay with SW-620 colon, with RPMI-8226 leukemia and with MOLT-4 leukemia was above 100 µM throughout. This compound yielded a TGI in the assay with OVCAR-8 ovarian above 100 µM.
On to `C=C1CC2(C)CCC(OC(=O)C3(C)OC3C)C(C)(OC(C)=O)C2CC1=C(C)C` (configuration not stated), for which the TGI with SK-MEL-2 melanoma, with RXF 393 renal, in the assay on UACC-257 melanoma, in the assay on SR leukemia, with SF-539 CNS and in the assay with DU-145 prostate was above 100 µM each time. Moreover, the TGI with SW-620 colon, in the assay on RPMI-8226 leukemia, in the assay with MOLT-4 leukemia and in the assay with OVCAR-8 ovarian was above 100 µM in each case.
Regarding `CC1(C)CCCC2(C)[C@@H]1CC[C@]13C[C@](C)(CC[C@@H]21)[C@@H]3CO` (some centres not stated), the TGI in the assay on RXF 393 renal, in the assay with UACC-257 melanoma, with SF-539 CNS, in the assay with SW-620 colon, with RPMI-8226 leukemia and in the assay with MOLT-4 leukemia was above 100 µM in each case.
Broadly, the GI50 is the concentration giving 50% growth inhibition. Regarding `Fc1cc(C2=Nn3c(nnc3-c3cc(F)c(Cl)cc3Cl)SC2)c(Cl)cc1Cl`, the GI50 in the assay on SK-MEL-2 melanoma was 65.3 µM; in the assay with RXF 393 renal it was 23.2 µM; with UACC-257 melanoma, 30.2 µM; in the assay with SR leukemia, 25.4 µM; with SF-539 CNS it was 18.9 µM; in the assay with DU-145 prostate, 36.6 µM. In addition, the GI50 with SW-620 colon is 22.6 µM; with RPMI-8226 leukemia, 6 µM; in the assay on MOLT-4 leukemia it was 16.9 µM; in the assay on OVCAR-8 ovarian, 26 µM. In addition, the TGI was above 100 µM in the assay on SK-MEL-2 melanoma; 62.5 µM in the assay with RXF 393 renal; above 100 µM with UACC-257 melanoma; above 100 µM with SR leukemia; 38 µM in the assay on SF-539 CNS; above 100 µM in the assay with DU-145 prostate. Also, the TGI came out at 47.2 µM in the assay on SW-620 colon, 35 µM in the assay on RPMI-8226 leukemia, 74.2 µM in the assay with MOLT-4 leukemia and 97.3 µM in the assay with OVCAR-8 ovarian.
For the compound `COc1ccc2c(c1)C(=O)/C(=C/c1ccccc1)C2`, the TGI with SK-MEL-2 melanoma, with RXF 393 renal, with SR leukemia, in the assay with DU-145 prostate, with RPMI-8226 leukemia and with MOLT-4 leukemia was above 100 µM in each case. This compound came in with a TGI with OVCAR-8 ovarian above 100 µM.
